# Measurements from patent US20110240014A1, “SUBSTRATES FOR DRUG DELIVERY DEVICE AND METHODS OF PREPARING AND USE” (ALEXZA PHARMACEUTICALS, INC., priority 2003, published 2011).
# Entries after “also recorded” stand apart in the source; their conditions may differ.
# Assays:
# [1] = Vaporization of budesonide film from clean and treated steel foils 304, T-430 and zirconium oxide coated 304; aerosol purity, yield and recovery by HPLC; format: physicochemical; conditions: in all cases (all foils of Example 5)
# Description: Generation of budesonide aerosol from clean and treated steel foils 304 and T-430. […] All foils were dip-coated with a budesonide solution in dichloromethane.
# [2] = Vaporization of bumetanide film from heat-treated, nitric acid-treated and non-treated 304 stainless steel foil; aerosol purity, yield and recovery by HPLC; conditions: for mass recovered from the filter / percent yield (recovered from the filter) / total mass recovered from the filter, test apparatus and substrate / Purity of the drug aerosol particles: coating 1.4 μm, 0.77 mg applied; for Purity of the drug aerosol particles: peak about 320° C.
# [3] = Vaporization of eletriptan film from heat-treated and non-treated 304 stainless steel foil; aerosol purity, yield and recovery by HPLC; format: physicochemical; conditions: for mass recovered from the filter / percent yield (recovered from the filter) / total mass recovered from the filter, test apparatus and substrate / Purity of the drug aerosol particles: film thickness 4.2 μm, 2.26 mg applied; for Purity of the drug aerosol particles: peak about 450° C.
# Description: All foils were dip-coated with an eletriptan solution in acetone.
# [4] = Vaporization of flunisolide film from stainless steel foil substrates (304, T-430, zirconium oxide coated 304); aerosol purity, yield and recovery by HPLC; conditions: for Purity of the drug aerosol particles: peak about 350° C.
# [5] = acid-treated (nitric acid) substrate
# [6] = 0.5 μm coating on the heat-treated substrate
# [7] = 1.5 μm coating on the non-treated substrate
# [8] = heat-treated substrate 304, film thickness 0.5 μm, 0.253 mg applied
# [9] = heat-treated substrate 304, film thickness 1.5 μm, 0.443 mg applied
# [10] = non-treated substrate 304, film thickness 0.9 μm, 0.485 mg applied
# [11] = non-treated substrate T-430, film thickness 1.3 μm, 0.68 mg applied
# [12] = substrate 304 (treatment not stated), film thickness 1.2 μm, 0.65 mg applied
# [13] = zirconium oxide coated substrate 304, film thickness 0.8 μm, 0.44 mg applied
structure (smiles),measurement,setting,value
CCCC1O[C@@H]2C[C@H]3[C@@H]4CCC5=CC(=O)C=C[C@]5(C)[C@H]4[C@@H](O)C[C@]3(C)[C@]2(C(=O)CO)O1 (some centres unmarked) [budesonide],quantity of drug remaining on the foil after vaporization,[1],less than 5 % of the loaded dose
CCCCNc1cc(C(=O)O)cc(S(N)(=O)=O)c1Oc1ccccc1 [bumetanide],mass recovered from the filter,[2]; [5],0.41 mg
same,percent yield (recovered from the filter),[2]; [5],53%
same,"total mass recovered from the filter, test apparatus and substrate",[2]; [5],0.42 mg
same,Purity of the drug aerosol particles,[2]; [5],98.3%
same,Purity of the drug aerosol particles,"[2]; heat-treated substrate (350° C., 6 hours)",99.3%
same,mass recovered from the filter,[2]; heat-treated substrate,0.40 mg
same,percent yield (recovered from the filter),[2]; heat-treated substrate,52%
same,"total mass recovered from the filter, test apparatus and substrate",[2]; heat-treated substrate,0.41 mg
same,quantity of drug remaining on the foil after vaporization,[2]; in all cases (all foils of Example 4),less than 5 % of the loaded dose
same,mass recovered from the filter,[2]; non-treated substrate,0.37 mg
same,percent yield (recovered from the filter),[2]; non-treated substrate,48%
same,"total mass recovered from the filter, test apparatus and substrate",[2]; non-treated substrate,0.37 mg
same,Purity of the drug aerosol particles,[2]; non-treated substrate,97.9%
CN1CCC[C@@H]1Cc1c[nH]c2ccc(CCS(=O)(=O)c3ccccc3)cc12 [eletriptan],mass recovered from the filter,[3]; heat-treated 304 substrate,1.78 mg
same,percent yield (recovered from the filter),[3]; heat-treated 304 substrate,78.9%
same,"total mass recovered from the filter, test apparatus and substrate",[3]; heat-treated 304 substrate,1.79 mg
same,Purity of the drug aerosol particles,[3]; heat-treated 304 substrate,95.6%
same,change of aerosol purity (in words),"[3]; heat-treated versus non-treated foils, films between 4.0 and 9.5 μm (FIG. 8)",increase
same,quantity of drug remaining on the foil after vaporization,[3]; in all cases (all foils of Example 2),less than 15 % of the loaded dose
same,mass recovered from the filter,[3]; non-treated 304 substrate,1.647 mg
same,percent yield (recovered from the filter),[3]; non-treated 304 substrate,72.9%
same,"total mass recovered from the filter, test apparatus and substrate",[3]; non-treated 304 substrate,1.65 mg
same,Purity of the drug aerosol particles,[3]; non-treated 304 substrate,92.8%
CC1(C)O[C@@H]2C[C@H]3[C@@H]4C[C@H](F)C5=CC(=O)C=C[C@]5(C)[C@H]4[C@@H](O)C[C@]3(C)[C@]2(C(=O)CO)O1 [flunisolide],aerosol particles yielded,[4]; [6],about 0.3 mg
same,coated dose emitted from the test apparatus,[4]; [6],97%-100
same,aerosol particles yielded,[4]; [7],0.2 mg
same,coated dose emitted from the test apparatus,[4]; [7],about 25%
same,vapor purity (in words),"[4]; clean, non-treated T-430 steel foil, compared with non-treated 304 (FIG. 7)",good vapor purities; also recorded: improved purities; also recorded: very good purities
same,purity of thermal vapor,"[4]; heat-treated 304 substrate, film thickness about 0.2 μm (FIG. 6)",about 93%
same,change of aerosol purity (in words),[4]; heat-treated T-430 foils versus non-treated T-430,no marked improvement
same,mass recovered from the filter,[4]; [8],0.253 mg
same,percent yield (recovered from the filter),[4]; [8],100%
same,total mass recovered from the test apparatus and substrate,[4]; [8],0.253 mg
same,Purity of the drug aerosol particles,[4]; [8],94.4%
same,mass recovered from the filter,[4]; [9],0.255 mg
same,percent yield (recovered from the filter),[4]; [9],57.5%
same,total mass recovered from the test apparatus and substrate,[4]; [9],0.265 mg
same,Purity of the drug aerosol particles,[4]; [9],76.5%
same,purity of thermal vapor,"[4]; heat-treated substrate, film thickness about 0.2 or 0.5 μm",about 93%
same,purity of thermal vapor,"[4]; heat-treated substrate, film thickness about 2.6 μm",83%
same,change of aerosol purity (in words),"[4]; heat-treated versus non-treated 304 substrates, films 0.2 μm to 2.6 μm (FIG. 6)",marked improvement; also recorded: marked increase
same,quantity of drug remaining on the foil after vaporization,[4]; in all cases (all foils of Example 1),less than 15 % of the loaded dose
same,purity of thermal vapor,"[4]; non-treated 304 substrate, film thickness about 0.2 μm (FIG. 6)",about 50%
same,mass recovered from the filter,[4]; [10],0.206 mg
same,percent yield (recovered from the filter),[4]; [10],42.4%
same,total mass recovered from the test apparatus and substrate,[4]; [10],0.210 mg
same,Purity of the drug aerosol particles,[4]; [10],36.3%
same,mass recovered from the filter,[4]; [11],0.47 mg
same,percent yield (recovered from the filter),[4]; [11],69.1%
same,total mass recovered from the test apparatus and substrate,[4]; [11],0.51 mg
same,Purity of the drug aerosol particles,[4]; [11],82.8%
same,purity of thermal vapor,"[4]; non-treated substrate, film thickness about 1.5 μm",38%
same,mass recovered from the filter,[4]; [12],0.161 mg
same,percent yield (recovered from the filter),[4]; [12],24.7%
same,total mass recovered from the test apparatus and substrate,[4]; [12],0.172 mg
same,Purity of the drug aerosol particles,[4]; [12],30.2%
same,vapor purity (in words),"[4]; zirconium oxide coated 304 steel foil, without heat treatment (FIG. 7)",good aerosol purities; also recorded: improved purities; also recorded: very good vapor purities
same,mass recovered from the filter,[4]; [13],0.246 mg
same,percent yield (recovered from the filter),[4]; [13],55.9%
same,total mass recovered from the test apparatus and substrate,[4]; [13],0.31 mg
same,Purity of the drug aerosol particles,[4]; [13],90.0%
